Measurements published in patent publication US9926293B2, “Multivalent RAS binding compounds” (THE TRUSTEES OF COLUMBIA UNIVERSITY IN THE CITY OF NEW YORK, priority 2014, dated 2018).

What was measured:
[1] = system: caspases 3 and 7 in HT-1080 (NRAS^Q61K) cells; experiment: Caspase 3/7 activation assay; format: cell-based; settings: staurosporine 5 μM, 24 hours
Method: Caspase 3/7 Activation Assay
HT-1080 cells were seeded into 384-well plates at 1,000 cells/well. After 12-16 hours, compounds (as 50 mM stocks in DMSO) were arrayed in a dilution series in 384-well polypropylene plates. Compound solutions were transferred at a 1:5 dilution into the assay plates for a total volume of 40 μL. After 24 hours, 8 μL of a 1:100 solution of rhodamine 110 bis-(N-CBZ-1-aspartyl-1-glutamyl-1-valyl-aspartic acid amide) to lysis buffer (APO-1, Promega) was added and the plate was wrapped in aluminum foil and incubated at room temperature for 16 hours. Fluorescence intensity was then determined using a Victor3 plate reader (Perkin Elmer) with a 490 nm excitation filter and a 535 nm emission filter. A viability curve was performed in parallel with the same incubation time using the procedure described in the “cell viability assays” section.

GppNHp-loaded KRASG12D = target: T1, GppNHp-loaded KRASG12D (Homo sapiens, UniProt P01116, G12D); experiment: Microscale thermophoresis, lysine NT-647-labeled GppNHp-loaded KRAS^G12D; format: binding; settings: MST, GppNHp-bound KRAS^G12D, Table 6; read-out: KD
T1 construct: made in house; host or cells: Escherichia coli BL21-Gold (DE3)
Method: Microscale Thermophoresis
KRAS^G12D (250 μM) in 25 mM HEPES, 100 mM sodium chloride, 2 mM TCEP with 20 mM EDTA and 1 mM GppNHp was shaken at 220 rpm at 30° C. to remove the endogenous nucleotide, The solution was placed on ice for 2 minutes prior to the addition of 65 mM MgCl2. After an additional 10 minutes incubation on ice, 200 uL of a 10 uM solution of KRAS^G12D was combined with 200 uL of a 20 uM solution of NT-647-NHS-ester dye (from a 652.4 μM stock). The protein/dye mixture was rotated at 4° C. for 30 minutes, before being separated from the excess dye and buffer exchanged into 25 mM Tris, 100 mM sodium chloride, 2 mM TCEP, and 5 mM MgCl2 via a nap-5 column. The test compounds were arrayed across a 16-point dilution series consisting of 1.5% DMSO with 25 mM Tris, 100 mM NaCl, 2 mM TCEP, 5 mM MgCl2 and 0.05% tween-20. Thermophoretic movement of the fluorescently labeled protein with the inhibitors was performed using a Monolith NT.115 (Nanotemper Technologies). RALA and RHOA were purchased commercially from Abcam (RALA CN:ab102555, RHOA CN:ab101594).
In another set of experiments, the top D38-A59 two-site multivalent compounds were evaluated by a RAS pulldown using the RAS binding domain of CRAF (the top two hits are shown in FIG. 14D). This abrogation of binding between RAS and its effector protein was also evident in the RAS-RALGDS interaction (FIG. 14E). To quantify the binding of the two-site compounds to RAS, MST was performed again using lysine NT-647-labeled, GppNHp-loaded KRAS^G12D. […] The third (Y32) site was extended into (compound 34MEW95) using this scaffold.
Docking scores and dissociation constants for binding to GppNHp-bound KRAS^G12D (PDB:4DSN) were measured as set forth above for additional 2- and 3-site compounds by microscale thermophoresis.

KRAS^G12D⋅BODIPY-GTP = target: T2, KRAS^G12D⋅BODIPY-GTP (Homo sapiens, UniProt P01116, G12D); experiment: Nucleotide displacement assay with BODIPY-GTP (fluorescence polarization); format: binding; settings: 2.5 μM KRAS^G12D⋅BODIPY-GTP, 12 hours
T2 construct: made in house; host or cells: Escherichia coli BL21-Gold (DE3)
Method: Nucleotide Displacement Assay
To investigate whether compounds were binding to the same site as GTP, a fluorescent polarization assay was implemented using fluorescently-labeled BODIPY-GTP as a probe. When BODIPY-GTP is free in solution, it has a low polarization. However, when BODIPY-GTP is bound to K-Ras protein, the polarization intensity is high. K-Ras G12D bound to BODIPY-GTP was incubated with different concentrations of ligand or unlabeled GTP or GDP in buffer containing 25 mM Tris-HCl, pH 8, 100 mM NaCl, 5 mM MgCl2, 1 mM EDTA, and 1 mM TCEP. The final concentration of K-Ras G12D bound to BODIPY-GTP in each well was 2.5 μM. The samples were incubated at 25° C. for 12 hours with gentle shaking to allow for the slow intrinsic nucleotide release reaction to take place. The change in fluorescence was measured on a Victor3 plate reader (Perkin Elmer) in 384-well black low-volume plates (Corning, Inc.). The BODIPY-GTP fluorophore was excited at 485 nm and emission was monitored at 535 nm.

Microsomal stability = format: in vitro ADME; settings: pH 7.4; mouse liver microsomes, 0.5 μM
Method: Test compounds (0.5 μM) were incubated at 37° C. for up to 45 minutes in 50 mM of potassium phosphate buffer (pH 7.4) containing microsomal protein (0.5 mg/mL) and an NADPH generating system (0.34 mg/mL β-nicotinamide adenine dinucleotide phosphate (NADP), 1.56 mg/mL glucose-6-phosphate, 1.2 units/mL glucose-6-phosphate dehydrogenase). At 0, 5, 15, 30 and 45 minute intervals an aliquot was taken and quenched with acetonitrile (ACN) containing an internal standard. No-cofactor controls at 45 minutes were prepared. Following completion of the experimentation, the samples were analyzed by LC-MS/MS using a Shimadzu HPLC and an Applied Biosystem AP 14000.

[2] = system: Mouse embryonic fibroblasts (MEFs), null Hras and Nras, floxed Kras; experiment: Growth inhibition of MEFs with floxed Kras locus; format: cell-based; settings: 600 nM, 6 days, vs DMSO
Method: In parallel, cells were treated with DMSO or 4OHT at 600 nM for 6 days. […] Cells were then lysed and treated with a pro-fluorescent caspase 3/7 substrate (rhodamine 110 bis-N-CBZ-L-aspartyl-L-gluramyl-L-valyl-aspartic acid amide) for 16 hours and measured.
All cell culture assays were incubated at 37° C., 5% CO2 in media containing Dulbecco's Modified Eagle Medium (DMEM) with 10% fetal bovine serum (FBS) and 1% penicillin-streptomycin (PS). 384-well format for EC50 determination: cells were trypsinized, counted, and seeded into 384-well plates at 1,000 cells/well. After 12-16 hours, compounds (as 50 mM stocks in DMSO) were arrayed in an 8- or 16-point dilution series in 384-well polypropylene plates. Compound solutions were transferred at a 1:5 dilution into the assay plates. After 48 hours, a 50% Alamar blue solution was added to a final concentration of 10% Alamar blue. After 6 hours of incubation, fluorescence intensity was determined using a Victor3 plate reader (Perkin Elmer) with a 535 nm excitation filter and a 590 nm emission filter. All compound measurements were performed in triplicate. For experiments performed in 6-well format, cells were trypsinized, counted, and seeded into 6-well plates at 200,000 cells per well 16 h prior to use. […] After 24 hours, cells were trypsinized and viability was determined using Trypan Blue exclusion assay. […]

T1 sequence (P01116 1-169 isoform P01116-2 G12D): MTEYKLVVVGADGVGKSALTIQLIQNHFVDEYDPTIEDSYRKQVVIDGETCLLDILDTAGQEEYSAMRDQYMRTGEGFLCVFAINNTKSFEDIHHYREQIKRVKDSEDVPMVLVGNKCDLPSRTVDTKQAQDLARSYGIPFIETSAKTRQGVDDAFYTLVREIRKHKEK
T2 sequence (P01116 1-169 isoform P01116-2 G12D): as above

Molecule | Kd (GppNHp-loaded KRASG12D) [µM] | other results
CN[C@@H]1C[C@H]2O[C@@](C)([C@@H]1OC)n1c3ccccc3c3c4c(c5c6ccccc6n2c5c31)C(=O)NC4 [staurosporine, reference compound] |  | fluorescence of caspase 3/7 substrate ([1]; 31MEW44 5 μM, 34MEW43 10 μM, 34MEW95 5 μM): Increased fluorescence; fluorescence of caspase 3/7 substrate ([1]; 31MEW44 2.5 and 5 μM): Increased fluorescence
O=C(NCCCn1cc(-c2cccc(F)c2)c2c(CN3CCN(CCOc4ccc(Cl)cc4)CC3)cccc21)C1(NCc2ccc(OCc3ccc(F)cc3)c(Cl)c2)CCNCC1 [Compound 35MEW12, 4-((3-chloro-4-((4-fluorobenzyl)oxy)benzyl)amino)-N-(3-(4-((4-(2-(4-chlorophenoxy)ethyl)piperazin-1-yl)methyl)-3-(3-fluorophenyl)-1H-indol-1-yl)propyl)piperidine-4-carboxamide] | 36 | 
CC(C)Oc1ccccc1-c1ccc(CNC2(C(=O)NCCCn3cc(-c4ccc(OC(F)(F)F)cc4)c4cc(CN5CCN(Cc6c(Cl)cccc6Cl)CC5)ccc43)CCNCC2)nc1 [Compound 43MEW73, N-(3-(5-((4-(2,6-dichlorobenzyl)piperazin-1-yl)methyl)-3-(4-(trifluoromethoxy)phenyl)-1H-indol-1-yl)propyl)-4-(((5-(2-isopropoxyphenyl)pyridin-2-yl)methyl)amino)piperidine-4-carboxamide] | 24 | 
Nc1nc2c(ncn2[C@@H]2O[C@H](COP(=O)(O)OP(=O)(O)O)[C@@H](O)[C@H]2O)c(=O)[nH]1 [GDP] |  | displacement of BODIPY-GTP (KRAS^G12D⋅BODIPY-GTP): can displace
COc1cc(CN2CCN(Cc3ccc4c(c3)c(-c3ccc(OC)cc3OC)cn4CCCNC(=O)C3CNCCN3)CC2)cc(OC)c1 (stereo not shown) [Compound 36MEW3, N-(3-(5-((4-(3,5-dimethoxybenzyl)piperazin-1-yl)methyl)-3-(2,4-dimethoxyphenyl)-1H-indol-1-yl)propyl)piperazine-2-carboxamide] | 230 | 
CCOc1ccc2ccc(=O)oc2c1 [7-ethoxycoumarin, reference compound] |  | half-life at 0.5 μM (Microsomal stability): 3.9 min
4-hydroxytamoxifen [Compound 4OHT, reference compound] |  | growth inhibition [2]: 91%
O=C(NCCCn1cc(-c2c(C(F)(F)F)cccc2C(F)(F)F)c2cc(CN3CCN(Cc4cc(C(F)(F)F)cc(C(F)(F)F)c4)CC3)ccc21)C1CNCCN1 (stereo not shown) [Compound 32MEW56, N-(3-(5-((4-(3,5-bis(trifluoromethyl)benzyl)piperazin-1-yl)methyl)-3-(2,6-bis(trifluoromethyl)phenyl)-1H-indol-1-yl)propyl)piperazine-2-carboxamide] | > 10000 | 
Nc1nc2c(ncn2[C@@H]2O[C@H](COP(=O)(O)OP(=O)(O)OP(=O)(O)O)[C@@H](O)[C@H]2O)c(=O)[nH]1 [GTP] |  | displacement of BODIPY-GTP (KRAS^G12D⋅BODIPY-GTP): can displace
O=C(NCCCn1cc(-c2ccc(OC(F)(F)F)cc2)c2cc(CN3CCN(Cc4c(Cl)cccc4Cl)CC3)ccc21)C1(NCc2ccc(OCc3cc(C(F)(F)F)cc(C(F)(F)F)c3)cc2)CCNCC1 [Compound 43MEW65, 4-((4-((3,5-bis(trifluoromethyl)benzyl)oxy)benzyl)amino)-N-(3-(5-((4-(2,6-dichlorobenzyl)piperazin-1-yl)methyl)-3-(4-(trifluoromethoxy)phenyl)-1H-indol-1-yl)propyl)piperidine-4-carboxamide] | 7.9 | 
COc1ccccc1-c1cn(CCCNC(=O)C2(N)CCNCC2)c2cccc(CN3CCN(CCOc4ccc(Cl)cc4)CC3)c12 [Compound 34MEW45, 4-amino-N-(3-(4-((4-(2-(4-chlorophenoxy)ethyl)piperazin-1-yl)methyl)-3-(2-methoxyphenyl)-1H-indol-1-yl)propyl)piperidine-4-carboxamide] | 1350 | 
COc1cc(COc2ccc(CNC3(C(=O)NCCCn4cc(-c5ccc(OC(F)(F)F)cc5)c5cc(CN6CCN(Cc7c(Cl)cccc7Cl)CC6)ccc54)CCNCC3)cc2OC)cc(OC)c1 [Compound 43MEW63] | 26 | 
